Read-outs that look alike come from different tables or passages of the source.
How the values were obtained:
PSMA = target: T1, PSMA (Homo sapiens, UniProt Q04609); experiment: In vitro competition binding assay on LNCaP cells with ^18F-DCFPyL as radioligand
T1 construct: because it expresses PSMA endogenously and is commonly used to evaluate PSMA-targeting radiotracers; endogenous in cells; host or cells: LNCaP cells
Protocol: LNCaP cells were plated onto a 24-well poly-D-lysine coated plate for 48 h (400,000/well). […] Nonspecific binding was determined in the presence of 10 μM unlabeled DCFPyL. The assay mixtures were incubated for 1 h at 37°C with gentle agitation followed by 2 washes with cold HEPES buffered saline. A trypsin solution (0.25%, 400 μL) was then added to each well to harvest the cells. Radioactivity was measured by γ-counting, and Ki values were calculated using the “1 site—fit Ki” built-in model in Prism 7 (GraphPad).

[1] = Distribution coefficient (LogD7.4), shake flask method; format: physicochemical; conditions: n-octanol / phosphate buffer 0.1 M pH 7.4; n = 3
Protocol: LogD7.4 values were measured using the shake flask method. Briefly, an aliquot of ^18F-labeled tracer was added to a vial containing 2.5 mL of n-octanol and 2.5 mL of phosphate buffer (0.1 M, pH 7.4). The mixture was vortexed for 2 min and then centrifuged at 3,000g for 10 min. A sample of the n-octanol (0.1 mL) and buffer (0.1 mL) layers was counted using a γ-counter. Values of LogD7.4 were calculated using the following equation: LogD7.4 = log10 [(counts in n-octanol phase)/(counts in buffer phase)].

LNCaP xenografts = experiment: Ex vivo biodistribution and blocking studies in mice bearing LNCaP xenografts; conditions: for tumor uptake compared with ^18F-DCFPyL: 1-way ANOVA, Dunnett test; for tumor uptake: LNCaP tumor
Protocol: Imaging and biodistribution experiments were performed using NODSCID IL2RγKO male mice. All experiments were conducted according to the guidelines established by the Canadian Council on Animal Care and approved by the Animal Ethics Committee of the University of British Columbia. Mice were anesthetized by inhalation with 2% isoflurane in oxygen and implanted subcutaneously with 1 × 10^7 LNCaP cells behind the left shoulder. The mice were imaged or used in biodistribution studies once the tumor reached 5–8 mm in diameter (5–6 wk).
For biodistribution and blocking studies, the mice were injected with 1–3 MBq of radiotracer. At 60 min, the mice were anesthetized with 2% isoflurane inhalation and euthanized by CO2 inhalation. Blood was withdrawn by cardiac puncture, and the organs and tissues of interest were collected, weighed, and counted using an automatic γ-counter (PerkinElmer). Uptake values were expressed as the percentage of the injected dose per gram of tissue (%ID/g).
A standard 1-way ANOVA was performed to determine whether statistically significant differences in tumor uptake occurred between radiotracers. Each radiotracer was compared with ^18F-DCFPyL using the Dunnett test (a many-to-one t test comparison). This analysis was also performed for kidney and blood activity and for tumor-to-blood and tumor-to-muscle ratios. Reported P values were adjusted for multiple comparisons. The analysis was performed using Prism 8 (GraphPad). […]
Statistical analyses were performed using GradPad prism 7. Multiple t tests were performed to compare biodistribution in unblocked and blocked mice, multiple comparisons were corrected using the Holm-Sidak method. The difference was considered statistically significant when p value was < 0.05.
Supplemental Table 1 – Complete biodistribution study for compounds [18F]1–3 […]
Tissue 1h 1h blocked 1h 1h blocked 1h 1h blocked
(%ID/g) n = 8 n = 4 n = 6 n = 4 n = 8 n = 5 […]
(1 picture or pasted object on this page, not shown here)

[2] = 1 h blocked (coinjection of DCFPyL 0.5 mg)

T1 sequence (Q04609 whole entry): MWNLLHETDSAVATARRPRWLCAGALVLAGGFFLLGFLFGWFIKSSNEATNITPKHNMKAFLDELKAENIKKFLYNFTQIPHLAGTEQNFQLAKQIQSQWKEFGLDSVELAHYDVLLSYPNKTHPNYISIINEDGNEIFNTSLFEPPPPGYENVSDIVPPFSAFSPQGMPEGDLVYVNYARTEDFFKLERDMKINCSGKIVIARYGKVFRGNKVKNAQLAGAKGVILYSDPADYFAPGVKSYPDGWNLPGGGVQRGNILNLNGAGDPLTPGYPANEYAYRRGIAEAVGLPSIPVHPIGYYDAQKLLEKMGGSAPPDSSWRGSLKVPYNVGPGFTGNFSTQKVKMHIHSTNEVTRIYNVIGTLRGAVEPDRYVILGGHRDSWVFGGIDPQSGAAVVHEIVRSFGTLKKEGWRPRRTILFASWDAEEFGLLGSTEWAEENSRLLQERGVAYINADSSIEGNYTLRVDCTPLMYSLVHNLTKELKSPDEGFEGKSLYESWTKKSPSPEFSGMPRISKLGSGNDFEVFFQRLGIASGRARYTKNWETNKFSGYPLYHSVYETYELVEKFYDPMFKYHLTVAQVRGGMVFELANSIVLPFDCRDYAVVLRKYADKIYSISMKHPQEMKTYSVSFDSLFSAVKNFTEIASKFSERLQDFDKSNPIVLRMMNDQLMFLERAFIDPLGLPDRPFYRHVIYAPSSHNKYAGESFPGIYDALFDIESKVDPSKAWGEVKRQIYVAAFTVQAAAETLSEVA

Compound: C[N+](C)(Cc1ccc(C(=O)NCCCC[C@H](NC(=O)N[C@@H](CCC(=O)O)C(=O)O)C(=O)O)cc1)C[B-](F)(F)F [^18F-1]
- Ki (PSMA; LNCaP cells, 0.1 nM ^18F-DCFPyL radioligand, 1 h at 37°C, n = 3): 14.4 ± 2.7 nM
- LogD7.4 [1]: −3.43 ± 0.35
- T/B (tumor-to-blood ratio) (LNCaP xenografts; 1 h after injection, unblocked): 10.82 ± 1.64
- T/K (tumor-to-kidney ratio) (LNCaP xenografts; 1 h after injection, unblocked): 0.07 ± 0.06
- T/M (tumor-to-muscle ratio) (LNCaP xenografts; 1 h after injection, unblocked): 23.43 ± 3.71
- adrenal uptake (LNCaP xenografts; 1 h after injection, unblocked): 4.77 ± 1.75 %ID/g
- blood uptake (LNCaP xenografts; 1 h after injection, unblocked): 0.57 ± 0.15 %ID/g
- bone uptake (LNCaP xenografts; 1 h after injection, unblocked): 0.36 ± 0.02 %ID/g
- brain uptake (LNCaP xenografts; 1 h after injection, unblocked): 0.04 ± 0.01 %ID/g
- fat uptake (LNCaP xenografts; 1 h after injection, unblocked): 0.99 ± 0.39 %ID/g
- heart uptake (LNCaP xenografts; 1 h after injection, unblocked): 0.30 ± 0.06 %ID/g
- intestine uptake (LNCaP xenografts; 1 h after injection, unblocked): 0.54 ± 0.11 %ID/g
- kidney uptake (LNCaP xenografts; 1 h after injection, unblocked): 114.00 ± 41.30 %ID/g
- liver uptake (LNCaP xenografts; 1 h after injection, unblocked): 2.90 ± 0.56 %ID/g
- lung uptake (LNCaP xenografts; 1 h after injection, unblocked): 1.37 ± 0.36 %ID/g
- muscle uptake (LNCaP xenografts; 1 h after injection, unblocked): 0.26 ± 0.08 %ID/g
- pancreas uptake (LNCaP xenografts; 1 h after injection, unblocked): 0.55 ± 0.16 %ID/g
- spleen uptake (LNCaP xenografts; 1 h after injection, unblocked): 2.67 ± 0.98 %ID/g
- stomach uptake (LNCaP xenografts; 1 h after injection, unblocked): 0.12 ± 0.05 %ID/g
- testes uptake (LNCaP xenografts; 1 h after injection, unblocked): 0.62 ± 0.15 %ID/g
- tumor uptake compared with ^18F-DCFPyL (LNCaP xenografts; 1 h after injection): lower tumor uptake than ^18F-DCFPyL
- T/B (tumor-to-blood ratio) (LNCaP xenografts; [2]): 0.91 ± 0.44
- T/K (tumor-to-kidney ratio) (LNCaP xenografts; [2]): 0.10 ± 0.03
- T/M (tumor-to-muscle ratio) (LNCaP xenografts; [2]): 2.63 ± 1.10
- adrenal uptake (LNCaP xenografts; [2]): 0.35 ± 0.14 %ID/g
- blood uptake (LNCaP xenografts; [2]): 0.45 ± 0.27 %ID/g
- bone uptake (LNCaP xenografts; [2]): 0.30 ± 0.07 %ID/g
- brain uptake (LNCaP xenografts; [2]): 0.03 ± 0.01 %ID/g
- fat uptake (LNCaP xenografts; [2]): 0.14 ± 0.08 %ID/g
- heart uptake (LNCaP xenografts; [2]): 0.15 ± 0.04 %ID/g
- intestine uptake (LNCaP xenografts; [2]): 0.57 ± 0.23 %ID/g
- kidney uptake (LNCaP xenografts; [2]): 3.54 ± 0.83 %ID/g
- liver uptake (LNCaP xenografts; [2]): 3.00 ± 0.53 %ID/g
- lung uptake (LNCaP xenografts; [2]): 0.25 ± 0.06 %ID/g
- muscle uptake (LNCaP xenografts; [2]): 0.13 ± 0.03 %ID/g
- pancreas uptake (LNCaP xenografts; [2]): 0.11 ± 0.03 %ID/g
- spleen uptake (LNCaP xenografts; [2]): 0.13 ± 0.03 %ID/g
- stomach uptake (LNCaP xenografts; [2]): 0.11 ± 0.08 %ID/g
- testes uptake (LNCaP xenografts; [2]): 0.10 ± 0.02 %ID/g
- tumor uptake (LNCaP xenografts; 1 h after injection, unblocked): 6.0 ± 1.2 %ID/g
- tumor uptake (LNCaP xenografts; 1 h after injection, unblocked, listed as [18F]1): 6.04 ± 1.24 %ID/g
- tumor uptake (LNCaP xenografts; [2]): 0.33 ± 0.07 %ID/g

Compound: C[N+](C)(Cc1cn(Cc2ccc(C(=O)NCCCC[C@H](NC(=O)N[C@@H](CCC(=O)O)C(=O)O)C(=O)O)cc2)nn1)C[B-](F)(F)F [^18F-2]
- Ki (PSMA): 11.8 ± 0.9 nM
- logD at 2 min [1]: -4.26 ± 0.04
- T/B (tumor-to-blood ratio) (LNCaP xenografts; 1 h after injection, unblocked): 15.95 ± 1.37
- T/K (tumor-to-kidney ratio) (LNCaP xenografts; 1 h after injection, unblocked): 0.12 ± 0.04
- T/M (tumor-to-muscle ratio) (LNCaP xenografts; 1 h after injection, unblocked): 37.30 ± 9.53
- adrenal uptake (LNCaP xenografts; 1 h after injection, unblocked): 4.65 ± 1.75 %ID/g
- blood uptake (LNCaP xenografts; 1 h after injection, unblocked): 0.52 ± 0.06 %ID/g
- bone uptake (LNCaP xenografts; 1 h after injection, unblocked): 0.44 ± 0.09 %ID/g
- brain uptake (LNCaP xenografts; 1 h after injection, unblocked): 0.04 ± 0.01 %ID/g
- fat uptake (LNCaP xenografts; 1 h after injection, unblocked): 0.73 ± 0.26 %ID/g
- heart uptake (LNCaP xenografts; 1 h after injection, unblocked): 0.33 ± 0.08 %ID/g
- intestine uptake (LNCaP xenografts; 1 h after injection, unblocked): 0.33 ± 0.05 %ID/g
- kidney uptake (LNCaP xenografts; 1 h after injection, unblocked): 71.70 ± 18.0 %ID/g
- liver uptake (LNCaP xenografts; 1 h after injection, unblocked): 1.69 ± 0.19 %ID/g
- lung uptake (LNCaP xenografts; 1 h after injection, unblocked): 1.39 ± 0.17 %ID/g
- muscle uptake (LNCaP xenografts; 1 h after injection, unblocked): 0.23 ± 0.04 %ID/g
- pancreas uptake (LNCaP xenografts; 1 h after injection, unblocked): 0.33 ± 0.05 %ID/g
- spleen uptake (LNCaP xenografts; 1 h after injection, unblocked): 5.01 ± 0.64 %ID/g
- stomach uptake (LNCaP xenografts; 1 h after injection, unblocked): 0.10 ± 0.03 %ID/g
- testes uptake (LNCaP xenografts; 1 h after injection, unblocked): 0.67 ± 0.17 %ID/g
- tumor uptake compared with ^18F-DCFPyL (LNCaP xenografts; 1 h after injection): No statistically significant differences
- T/B (tumor-to-blood ratio) (LNCaP xenografts; [2]): 0.77 ± 0.48
- T/K (tumor-to-kidney ratio) (LNCaP xenografts; [2]): 0.13 ± 0.02
- T/M (tumor-to-muscle ratio) (LNCaP xenografts; [2]): 2.66 ± 1.60
- adrenal uptake (LNCaP xenografts; [2]): 0.20 ± 0.05 %ID/g
- blood uptake (LNCaP xenografts; [2]): 0.46 ± 0.24 %ID/g
- bone uptake (LNCaP xenografts; [2]): 0.30 ± 0.06 %ID/g
- brain uptake (LNCaP xenografts; [2]): 0.02 ± 0.00 %ID/g
- fat uptake (LNCaP xenografts; [2]): 0.06 ± 0.01 %ID/g
- heart uptake (LNCaP xenografts; [2]): 0.09 ± 0.02 %ID/g
- intestine uptake (LNCaP xenografts; [2]): 0.31 ± 0.02 %ID/g
- kidney uptake (LNCaP xenografts; [2]): 2.11 ± 0.19 %ID/g
- liver uptake (LNCaP xenografts; [2]): 1.76 ± 0.17 %ID/g
- lung uptake (LNCaP xenografts; [2]): 0.22 ± 0.03 %ID/g
- muscle uptake (LNCaP xenografts; [2]): 0.12 ± 0.05 %ID/g
- pancreas uptake (LNCaP xenografts; [2]): 0.06 ± 0.01 %ID/g
- spleen uptake (LNCaP xenografts; [2]): 0.09 ± 0.03 %ID/g
- stomach uptake (LNCaP xenografts; [2]): 0.06 ± 0.02 %ID/g
- testes uptake (LNCaP xenografts; [2]): 0.08 ± 0.02 %ID/g
- tumor uptake (LNCaP xenografts; 1 h after injection, unblocked, listed as 2): 8.3 ± 1.3 %ID/g
- tumor uptake (LNCaP xenografts; 1 h after injection, unblocked, listed as [18F]2): 8.28 ± 1.25 %ID/g
- tumor uptake (LNCaP xenografts; [2]): 0.27 ± 0.06 %ID/g

Compound: O=C(O)CCC(NC(=O)NC(CCCCNC(=O)c1ccc([18F])nc1)C(=O)O)C(=O)O (centres unmarked) [^18F-DCFPyL, 2-(3-{1-carboxy-5-[(6-[^18F]fluoro-pyridine-3-carbonyl)-amino]-pentyl}-ureido)-pentanedioic acid, reference compound]
- logD at 2 min [1]: -3.12 ± 0.22
- adrenal uptake (LNCaP xenografts; 1 h after injection, unblocked): 3.02 ± 2.14 %ID/g
- blood uptake (LNCaP xenografts; 1 h after injection, unblocked): 0.60 ± 0.13 %ID/g
- bone uptake (LNCaP xenografts; 1 h after injection, unblocked): 0.33 ± 0.07 %ID/g
- brain uptake (LNCaP xenografts; 1 h after injection, unblocked): 0.03 ± 0.01 %ID/g
- fat uptake (LNCaP xenografts; 1 h after injection, unblocked): 1.05 ± 0.64 %ID/g
- heart uptake (LNCaP xenografts; 1 h after injection, unblocked): 0.35 ± 0.12 %ID/g
- intestine uptake (LNCaP xenografts; 1 h after injection, unblocked): 0.33 ± 0.07 %ID/g
- kidney uptake (LNCaP xenografts; 1 h after injection, unblocked): 123.76 ± 37.67 %ID/g
- liver uptake (LNCaP xenografts; 1 h after injection, unblocked): 1.82 ± 0.24 %ID/g
- lung uptake (LNCaP xenografts; 1 h after injection, unblocked): 1.62 ± 0.68 %ID/g
- muscle uptake (LNCaP xenografts; 1 h after injection, unblocked): 0.29 ± 0.12 %ID/g
- pancreas uptake (LNCaP xenografts; 1 h after injection, unblocked): 0.58 ± 0.32 %ID/g
- spleen uptake (LNCaP xenografts; 1 h after injection, unblocked): 3.98 ± 2.35 %ID/g
- stomach uptake (LNCaP xenografts; 1 h after injection, unblocked): 0.12 ± 0.03 %ID/g
- testes uptake (LNCaP xenografts; 1 h after injection, unblocked): 0.57 ± 0.21 %ID/g
- tumor uptake (LNCaP xenografts; 1 h after injection, unblocked): 11.64 ± 3.52 %ID/g

From article PMC6681697, “One-Step ^18F-Labeling and Preclinical Evaluation of Prostate-Specific Membrane Antigen Trifluoroborate Probes for Cancer Imaging” (Journal of Nuclear Medicine, 2019)
